Results taken from US20220143194A1, “SELENIUM ANTIBODY CONJUGATES” (priority 2020, published 2022).
Non-standard residues stand in square brackets, D forms with d. Residues, ends and D or L forms follow the SMILES beside them. *: point of attachment. Dolaproine = CO[C@@H]([C@@H]1CCCN1)[C@@H](C)C(=O)O; Dil = CC[C@H](C)[C@H](NC)[C@@H](CC(=O)O)OC; X1 = C[C@@H](N*)[C@@H](O)c1ccccc1; NMeV = CN[C@H](C(=O)O)C(C)C

What was measured:
NCI H1975 (Her2−) cells = experiment: In vitro cytotoxicity assay (CCK8 cell viability), NCI H1975 (Her2−) negative control cells; format: cell-based; settings: 3 days incubation
Experimental: (§1) The ability of various antibody-drug conjugates and naked payloads to kill antigen-expressing tumor cells in vitro was assessed.
(§2) SKBR3 (Her2+) cells were seeded in 96 well plates at 8000 cells per well in complete growth media and grown overnight. For cell viability curves, serially diluted conjugates or naked payloads were added to the cells at final concentrations ranging from 100 nM to 5 pM and incubated for 3 days. NCI H1975 (Her2−) cells were run as negative controls using similar conditions. To measure viability, cells were incubated with CCK8 (Dojindo) for the final 2 hours and the absorbance at 450 nm (OD450) was determined on a Victor (Perkin Elmer). Background OD450 levels determined from digitonin (40 nM) treated cells were subtracted from all wells and viability is expressed as a percentage of the untreated controls. IC50 values were determined from a four-parameter logistic equation over a 10-point response curve (GraphPad Prism). […] The interchain disulfide conjugates had similar IC50 values as the transglutaminase site-specific selenocystamine conjugates. […] For comparison, the mc-vc-PAB-MMAE interchain disulfide conjugated molecules were produced according to Doronina, S. O. et al., Nat. Biotechnol., 2003, 21, 778.

SKBR3 (Her2+) cells = experiment: In vitro cytotoxicity assay (CCK8 cell viability), SKBR3 (Her2+) cells; format: cell-based
Experimental: as §1, §2

With `CC[C@H](C)[C@@H]([C@@H](CC(=O)N1CCC[C@H]1[C@H](OC)[C@@H](C)C(=O)N[C@H](C)[C@@H](O)c1ccccc1)OC)N(C)C(=O)[C@@H](NC(=O)[C@@H](NC)C(C)C)C(C)C` [MMAE, monomethyl auristatin E] (H-[NMeV]V[Dil][Dolaproine]-X1) the “% Kill” value (NCI H1975 (Her2−) cells; concentrations 100 nM to 5 pM) was 100%, the IC50 (NCI H1975 (Her2−) cells; Homo sapiens, 72 h, IC50 corrected for payload equivalents) was 405 pM and the IC50 (SKBR3 (Her2+) cells; Homo sapiens, SK-BR-3, 72 h) was 191 pM. The “% Kill” value (SKBR3 (Her2+) cells; SK-BR-3 cells, 3 days incubation, CCK8 viability, concentrations 100 nM to 5 pM) was 93.6%.
